Experimental data: patent publication US11696917B2, “Agent enhancing antitumor effect using pyrazolo[3,4-d]pyrimidine compound” (TAIHO PHARMACEUTICAL CO., LTD., priority 2017, dated 2023)

Tested on: NCI-N87 (human stomach cancer)
Test: Combination of Compound 1 and other antitumor agents (in vitro), CellTiter-Glo, median effect method
Type: cell-based
Protocol: The supplier of each reagent, the suppliers of tumor cell lines, the media used, and the numbers of cells to be inoculated are shown in the tables below.
The cells were inoculated at 20 μL/well to a 384-well culture plate (Corning Inc.). The plate inoculated with the cells were cultured in an incubator set to 37° C. and 5% CO2. On the day following inoculation, each of mixed solutions of Compound 1 and each other antitumor agent at varying combinations of concentrations was added to the cells. Specifically, 8 serial dilutions (including (0 nM)) of Compound 1 and 10 serial dilutions (including (0 nM)) of the other antitumor agent were prepared using Leibovitz's L-15 medium containing 10% FBS, or ATCC formulated RPMI-1640 medium containing 10% FBS. Drug solutions in which equal amounts of the respective serial dilutions of the compounds were dispensed were mixed at a ratio of 1:1 to prepare a total of 80 mixed drug solutions including every combination. Each of these mixed drug solutions was added at 5 μL/well (N=4) to the plate, followed by further culture for 3 days under conditions of 37° C. and 5% CO2.
Three days later, CellTiter-Glo™ 2.0 Reagent (Promega Corporation) was added thereto at 25 μL/well, and chemiluminescence was measured using a plate reader (EnSpire® Multimode Plate Reader, PerkinElmer Japan Co., Ltd.).
The enhancement of an effect by combined use of the drugs was evaluated according to a method known in the art (a method described in Trends Pharmacol. Sci., 4, 450-454, 1983 or Pharmacol Rev., 58 (3), 621-81, 2006).
An average value from 4 wells of each combination was calculated from the obtained data, and a cell survival rate normalized against a control supplemented with a medium containing a vehicle was calculated. A Fa (fraction of affect) value was calculated by subtracting the cell survival rate from 1. Median effect analysis software CalcuSyn 2.0 (CalcuSyn, Inc.) for calculation by the median effect method was used in the calculation of CI.
As for the combinations of the concentrations of both the drugs for calculating CI, a Fa value closer to 1 presumably means a concentration range in which one of the drugs had too strong an effect, and a Fa value closer to 0 presumably means a concentration range in which any of the drugs had too weak an effect. Since these concentration ranges were not appropriate for the discussion of a synergistic effect, combinations that satisfied 0.2 S Fa 0.8 were extracted from the combinations of the respective concentrations of Compound 1 and the other antitumor agent on the basis of the calculated Fa value.
An effect of combined use was determined as shown in the table below (Pharmacol Rev., 58 (3), p. 621-81, 2006).

[1] = Compound 1 0.137 nM + Cisplatin 2062 nM, ratio 1:15030, NCI-N87
[2] = Compound 1 0.137 nM + Gemcitabine 1.37 nM, ratio 1:10, NCI-N87
[3] = Compound 1 0.137 nM + Gemcitabine 4.12 nM, ratio 1:30, NCI-N87
[4] = Compound 1 0.137 nM + Gemcitabine 12.3 nM, ratio 1:90, NCI-N87
[5] = Compound 1 0.137 nM + Trifluridine 12346 nM, ratio 1:90000, NCI-N87
[6] = Compound 1 0.412 nM + Cisplatin 2062 nM, ratio 1:5010, NCI-N87
[7] = Compound 1 0.412 nM + Cisplatin 6185 nM, ratio 1:15030, NCI-N87
[8] = Compound 1 0.412 nM + FdUrd 4115 nM, ratio 1:10000, NCI-N87
[9] = Compound 1 0.412 nM + FdUrd 12346 nM, ratio 1:30000, NCI-N87
[10] = Compound 1 0.412 nM + FdUrd 37037 nM, ratio 1:90000, NCI-N87
[11] = Compound 1 0.412 nM + Trifluridine 1372 nM, ratio 1:3333, NCI-N87
[12] = Compound 1 0.412 nM + Trifluridine 4115 nM, ratio 1:10000, NCI-N87
[13] = Compound 1 0.412 nM + Trifluridine 12346 nM, ratio 1:30000, NCI-N87
[14] = Compound 1 0.412 nM + Trifluridine 37037 nM, ratio 1:90000, NCI-N87
[15] = Compound 1 1.24 nM + Cisplatin 6185 nM, ratio 1:5010, NCI-N87
[16] = Compound 1 1.24 nM + Cisplatin 18556 nM, ratio 1:15030, NCI-N87
[17] = Compound 1 1.24 nM + FdUrd 12346 nM, ratio 1:10000, NCI-N87
[18] = Compound 1 1.24 nM + FdUrd 37037 nM, ratio 1:30000, NCI-N87
[19] = Compound 1 1.24 nM + FdUrd 111111 nM, ratio 1:90000, NCI-N87
[20] = Compound 1 1.24 nM + Gemcitabine 1.37 nM, ratio 1:1.1, NCI-N87
[21] = Compound 1 1.24 nM + Gemcitabine 4.12 nM, ratio 1:3.3, NCI-N87
[22] = Compound 1 1.24 nM + Gemcitabine 12.3 nM, ratio 1:10, NCI-N87
[23] = Compound 1 1.24 nM + Gemcitabine 37.0 nM, ratio 1:30, NCI-N87
[24] = Compound 1 1.24 nM + Gemcitabine 111 nM, ratio 1:90, NCI-N87
[25] = Compound 1 1.24 nM + Paclitaxel 5.56 nM, ratio 1:4.5, NCI-N87
[26] = Compound 1 1.24 nM + Trifluridine 1372 nM, ratio 1:1111, NCI-N87
[27] = Compound 1 1.24 nM + Trifluridine 4115 nM, ratio 1:3333, NCI-N87
[28] = Compound 1 1.24 nM + Trifluridine 12346 nM, ratio 1:10000, NCI-N87
[29] = Compound 1 1.24 nM + Trifluridine 37037 nM, ratio 1:30000, NCI-N87
[30] = Compound 1 1.24 nM + Trifluridine 111111 nM, ratio 1:90000, NCI-N87
[31] = Compound 1 3.70 nM + Cisplatin 2062 nM, ratio 1:557, NCI-N87
[32] = Compound 1 3.70 nM + Cisplatin 6185 nM, ratio 1:1670, NCI-N87
[33] = Compound 1 3.70 nM + Cisplatin 18556 nM, ratio 1:5010, NCI-N87
[34] = Compound 1 3.70 nM + FdUrd 4115 nM, ratio 1:1111, NCI-N87
[35] = Compound 1 3.70 nM + FdUrd 12346 nM, ratio 1:3333, NCI-N87
[36] = Compound 1 3.70 nM + FdUrd 37037 nM, ratio 1:10000, NCI-N87
[37] = Compound 1 3.70 nM + FdUrd 111111 nM, ratio 1:30000, NCI-N87

C=CC(=O)N1CCC[C@@H](n2nc(C(=O)Nc3ccc(CC(=O)N(C)C)c(C)c3C)c3c(N)ncnc32)C1 [Compound 1, (R)-1-(1-acryloylpiperidin-3-yl)-4-amino-N-(4-(2-(dimethylamino)-2-oxoethyl)-2,3-dimethylphenyl)-1H-pyrazolo[3,4-d]pyrimidine-3-carboxamide]
CI [1]: 0.62 | Fa [1]: 0.39 | CI [2]: 0.03 | Fa [2]: 0.69 | CI [3]: 0.37 | Fa [3]: 0.68 | CI [4]: 0.01 | Fa [4]: 0.73 | CI [5]: 0.26 | Fa [5]: 0.43 | CI [6]: 0.64 | Fa [6]: 0.36 | CI [7]: 0.57 | Fa [7]: 0.55 | CI [8]: 0.39 | Fa [8]: 0.25 | CI [9]: 0.46 | Fa [9]: 0.30 | CI [10]: 0.63 | Fa [10]: 0.41 | CI [11]: 0.35 | Fa [11]: 0.26 | CI [12]: 0.65 | Fa [12]: 0.26 | CI [13]: 0.38 | Fa [13]: 0.41 | CI [14]: 0.34 | Fa [14]: 0.54 | CI [15]: 0.40 | Fa [15]: 0.60 | CI [16]: 0.42 | Fa [16]: 0.72 | CI [17]: 0.58 | Fa [17]: 0.33 | CI [18]: 0.70 | Fa [18]: 0.39 | CI [19]: 0.39 | Fa [19]: 0.54 | CI [20]: 0.07 | Fa [20]: 0.70 | CI [21]: 0.06 | Fa [21]: 0.71 | CI [22]: 0.04 | Fa [22]: 0.77 | CI [23]: 0.05 | Fa [23]: 0.73 | CI [24]: 0.05 | Fa [24]: 0.72 | CI [25]: 0.45 | Fa [25]: 0.50 | CI [26]: 0.78 | Fa [26]: 0.24 | CI [27]: 0.71 | Fa [27]: 0.31 | CI [28]: 0.37 | Fa [28]: 0.48 | CI [29]: 0.41 | Fa [29]: 0.55 | CI [30]: 0.68 | Fa [30]: 0.59 | CI [31]: 0.58 | Fa [31]: 0.54 | CI [32]: 0.38 | Fa [32]: 0.67 | CI [33]: 0.42 | Fa [33]: 0.75 | CI [34]: 0.82 | Fa [34]: 0.39 | CI [35]: 0.58 | Fa [35]: 0.47 | CI [36]: 0.41 | Fa [36]: 0.56 | CI [37]: 0.60 | Fa [37]: 0.57
